Literature values as cited in patent US8507466B2, “Oils enriched with diacylglycerols and phytosterol esters and unit dosage forms thereof for use in therapy” (Enzymotec Ltd., priority 2003, dated 2013).

How the values were obtained:
LDL = conditions: incubation of LDL with copper ion
[1] = system: tumor cell growth (LNCaP and HT-29); conditions: compared to cholesterol

Compound	elevation of LDL oxidation (LDL)	decrease in cell growth [1]	increase in apoptosis [1]
CCCCC/C=C\C/C=C\CCCCCCCC(=O)O [linoleic acid (LA), linoleic acid]	22%	–	–
CC[C@H](CC[C@@H](C)[C@H]1CC[C@H]2[C@@H]3CC=C4C[C@@H](O)CC[C@]4(C)[C@H]3CC[C@]12C)C(C)C [beta-sitosterol]	–	24%	4 fold
